Entries after “also recorded” stand apart in the source; their conditions may differ.
How the values were obtained:
[1] = system: CuFi-1 epithelial monolayers; assay: Airway surface liquid (ASL) pH assay, SNARF-dextran ratiometric dye, CuFi-1 monolayers; format: cell-based, human
Protocol: Airway surface liquid (ASL) pH assay. ASL pH was studied using an established fluorescent dye assay using the Dextran, SNARF®-1, 70,000 MW ratiometric dye (Thermo Fisher D3304). Mature, differentiated CuFi-1 (ATCC CRL-4013) epithelial monolayers were grown on Corning Costar 0.4 μm Transwell Clear Polyester Membrane cell culture inserts (Corning 3470). CuFi epithelia were treated with perfluorinated hydrocarbon (PFC) vehicle, AmB, AmB:Chol or Chol and incubated for the time course of the experiment at 37° C. On the day of imaging, 100 μL of a suspension of SNARF-dextran in PFC was added to the apical side of the monolayers. Monolayers were imaged 2 hours after dye addition. The monolayers were placed on 100 μL of Ultroser G media on a 10 mm glass bottom Fluorodish for imaging (World Precision Instruments). Five images per membrane were taken on a Zeiss LSM 880 confocal microscope at 40× water immersion. These images were analyzed using ImageJ to determine the green to red ratio of each image. Solutions of known pH were used to calibrate pH detection using this system. […]

[2] = system: non-CF primary human lung epithelia; assay: ASL pH in non-CF (control) primary human lung epithelia; format: cell-based; settings: apical
Protocol: (§1) Airway surface liquid (ASL) pH assay. ASL pH was studied using an established fluorescent dye assay using the Dextran, SNARF®-1, 70,000 MW ratiometric dye (Thermo Fisher D3304). Mature, differentiated CuFi-1 (ATCC CRL-4013) epithelial monolayers were grown on Corning Costar 0.4 μm Transwell Clear Polyester Membrane cell culture inserts (Corning 3470). CuFi epithelia were treated with perfluorinated hydrocarbon (PFC) vehicle, AmB, AmB:Chol or Chol and incubated for the time course of the experiment at 37° C. On the day of imaging, 100 μL of a suspension of SNARF-dextran in PFC was added to the apical side of the monolayers. Monolayers were imaged 2 hours after dye addition. The monolayers were placed on 100 μL of Ultroser G media on a 10 mm glass bottom Fluorodish for imaging (World Precision Instruments). Five images per membrane were taken on a Zeiss LSM 880 confocal microscope at 40× water immersion. These images were analyzed using ImageJ to determine the green to red ratio of each image. Solutions of known pH were used to calibrate pH detection using this system.
Non-CF (control) and CF primary human lung epithelia were prepared and maintained in vitro as previously described. Pezzulo A A et al. (2012) Nature 487: 109-113. […]

[3] = system: CuFi-4 (ΔF508/G551D) epithelia; assay: ASL pH in CuFi-4 epithelia; format: cell-based, human
Protocol: as §1
Ivacaftor is a clinically approved and effective drug to treat cystic fibrosis, and it was used as a control in some of the experiments. […]

[4] = system: CuFi-1 epithelial monolayers; assay: Ussing chamber short circuit current (permeabilization) across CuFi-1 monolayers; format: cell-based, human
Protocol: (§2) In some embodiments, a small molecule or a complex can permeabilize the apical membrane of differentiated human lung epithelia to bicarbonate. A series of natural and synthetic small molecules reported previously to permeabilize liposomes, cells, and/or nasal epithelia of mice to anions were tested for the capacity to increase short circuit current across CuFi-1 epithelial monolayers using an Ussing chamber. […] The capacity for AmB to transport bicarbonate was tested using an adapted ^13C NMR-based assay in cholesterol-containing POPC liposomes.
In a separate set of experiments, CuFi-1 cells in culture were treated with AmB in DMSO, pre-formed AmB:Chol complexes (1:5), or DMSO alone, and then short-circuit current was measured over time out to about 70 minutes.

[5] = system: CF primary human lung epithelia; assay: Change in short-circuit current in CF primary human lung epithelia after AmB treatment; format: cell-based; settings: 2 μM, 48 h
Protocol: Non-CF (control) and CF primary human lung epithelia were prepared and maintained in vitro as previously described. Pezzulo A A et al. (2012) Nature 487: 109-113. For example, epithelial cells were isolated from the trachea and bronchi by enzymatic digestion, seeded onto collagen-coated semi-permeable membranes (0.6 cm^2 Millicell-PCF; Millipore, Bedford, MA), and grown at the air-liquid interface as previously described in Karp P H et al. (2002) In Wise C., Epithelial Cell Culture Protocols, Humana Press, Inc. 188: 115-137. Culture medium, a 1:1 mixture of Dulbecco's modified Eagle's medium and Ham's F12 medium (DMEM/F12), was supplemented with 2% Ultroser G (PALL France SAS; Saint Germain-en-Laye, France). Differentiated epithelia were used at least 14 days after seeding.
These cells were treated with AmB at a final concentration of 2 μM for 48 h, and then change in short-circuit current was measured.

[6] = 13C NMR-based bicarbonate release assay in liposomes
Protocol: as §2

[7] = system: CF primary human lung epithelia; assay: ASL viscosity in CF primary human lung epithelia; format: cell-based; settings: 2 μM, 48 h; vs untreated CF epithelia
Protocol: Non-CF (control) and CF primary human lung epithelia were prepared and maintained in vitro as previously described. Pezzulo A A et al. (2012) Nature 487: 109-113. These cells were treated with AmB at a final concentration of 2 μM for 48 h, and then ASL viscosity was measured.

[8] = system: Human red blood cells (RBCs); assay: Hemolysis of human red blood cells; format: cell-based
Protocol: Against Toxicity but Preserves Permeabilization of CF Human Lung Epithelia Human red blood cells (RBCs) were separated from whole blood by centrifugation and then exposed to AmB or pre-formed AmB:Chol complexes (1:5) (Example 8) over a range of concentrations up to 20 μM. Hemolysis was then measured.

[9] = system: CuFi-1 epithelial monolayers; assay: pH-stat apical chamber alkalization in CuFi-1 monolayers; format: cell-based, human
Protocol: To directly probe whether AmB-mediated bicarbonate transport causes the ASL pH increase, pH-stat experiments were performed in large NuLi and CuFi-1 epithelial monolayers either in the presence of bicarbonate or in bicarbonate-free solution. Cho, D Y, et al., (2009) Am J Rhinol Allergy 23, e10-13; Cho, D Y, et al., (2011) Int Forum Allergy Rhinol 1, 123-127. […] To address the potential role of proton absorption in the alkalization of the ASL, these experiments were repeated in bicarbonate-free buffer.

[10] = system: protein ion channel-deficient yeast (trk1Δtrk2Δ); settings: cited from earlier work
yeast = settings: cited from earlier work

**Q.** What does the source list for `C[C@@H]1[C@H](O)[C@@H](C)/C=C/C=C/C=C/C=C/C=C/C=C/C=C/[C@H](O[C@@H]2O[C@H](C)[C@@H](O)[C@H](N)[C@@H]2O)C[C@@H]2O[C@](O)(C[C@@H](O)C[C@@H](O)[C@H](O)CC[C@@H](O)C[C@@H](O)CC(=O)O[C@H]1C)C[C@H](O)[C@H]2C(=O)O` [AmB, amphotericin B]?
**A.** effect on ASL pH, apical addition ([1]; CuFi-1): increase ASL pH; also recorded: efficacious; effect on ASL pH, basolateral addition ([1]; CuFi-1, basolateral addition): unable to increase ASL pH; also recorded: not basolateral; drop of ASL pH below the starting pH ([1]; Example 7, FIG. 8, by 25 μM and beyond): about 0.05 pH units; dose up to which ASL pH increased ([1]; Example 7, FIG. 8, suspension in PFC): 2 μM; ASL pH at high dose ([1]; Example 14, FIG. 21, by 25 μM): back down to the starting pH; dose at which ASL pH increase peaks ([1]; Example 14, FIG. 21, suspension in PFC): 5 μM; effect on ASL pH of non-CF epithelia [2]: absence of effect; also recorded: no effect; effect on ASL pH [3]: increase ASL pH; permeabilization / increase in short circuit current [4]: exceptionally effective; change in short-circuit current compared to untreated CF epithelia [5]: no significant difference; release of 13C-labelled bicarbonate from liposomes [6]: Robust and rapid release; ASL viscosity [7]: significantly decreased ASL viscosity; concentration giving 50 percent hemolysis [8]: about 7 μM; concentration giving 100 percent hemolysis [8]: about 10 μM; apical chamber alkalization ([9]; bicarbonate-free buffer): did not increase apical chamber alkalization; also recorded: No change in apical chamber alkalization; apical chamber alkalization ([9]; in the presence of basolateral bicarbonate): increase apical chamber alkalization; yeast growth rescue [10]: restored to normal phenotype (growth); also recorded: restore growth; fungicidal activity / toxicity to yeast (yeast): highly toxic to yeast

Reference: US11850256B2, “Small molecule-mediated restoration of airway surface physiology in human cystic fibrosis lung epithelia” (The Board of Trustees of the University of Illinois, priority 2016, dated 2023)
